Data on 26 compounds can be found in patent publication US9598421B2, “Imidazopyridazine compounds” (Pfizer Inc., priority 2014, dated 2017).

Assay type in all cases: biochemical
One assay has as its target Human PDE4C (Homo sapiens (Human), UniProt Q08493). The experiment in a line: PDE4C Scintillation Proximity Assay (SPA), inhibition of enzyme activity. To be noted: read-out: Human PDE4C FL. For orientation: In a scintillation proximity assay essentially only radioactivity close to the scintillant gives light.
Another assay addresses Human PDE4D (Homo sapiens (Human), UniProt Q08499). The experiment in a line: PDE4D Scintillation Proximity Assay (SPA), inhibition of enzyme activity. The following applies: read-out: Human PDE4D FL.
In the next assay the target is Human PDE4A (Homo sapiens (Human), UniProt P27815). The experiment in a line: PDE4A Scintillation Proximity Assay (SPA), inhibition of enzyme activity. To be noted: read-out: Human PDE4A FL.
The mark [1] stands for this setting: human recombinant enzyme, 1 μM cAMP substrate, 30 min at 25° C., geometric mean of 2-9 determinations unless otherwise indicated.

pIC50: −log10 of the molar value. Read-outs that look alike come from different tables or passages of the source. A value given as a limit tells only on which side of the number the result lay.

Sequence of Human PDE4D (Q08499 186-808): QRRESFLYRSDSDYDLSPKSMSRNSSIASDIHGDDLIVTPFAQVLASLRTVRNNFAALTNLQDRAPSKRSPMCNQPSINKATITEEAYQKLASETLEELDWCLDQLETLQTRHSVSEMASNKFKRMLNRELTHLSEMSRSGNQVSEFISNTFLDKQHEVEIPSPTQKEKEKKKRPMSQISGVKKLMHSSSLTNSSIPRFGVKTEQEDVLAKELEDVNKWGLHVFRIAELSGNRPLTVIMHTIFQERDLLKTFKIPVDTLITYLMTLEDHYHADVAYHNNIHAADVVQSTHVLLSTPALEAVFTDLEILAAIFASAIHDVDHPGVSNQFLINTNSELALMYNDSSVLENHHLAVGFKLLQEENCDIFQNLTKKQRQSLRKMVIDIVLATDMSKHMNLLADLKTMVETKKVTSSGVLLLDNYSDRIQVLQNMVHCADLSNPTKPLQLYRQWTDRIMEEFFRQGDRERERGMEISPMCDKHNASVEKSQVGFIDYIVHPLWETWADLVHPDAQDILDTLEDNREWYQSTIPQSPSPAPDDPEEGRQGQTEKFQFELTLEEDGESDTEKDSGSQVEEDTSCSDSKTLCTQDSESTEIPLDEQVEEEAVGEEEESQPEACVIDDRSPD
Sequence of Human PDE4A (P27815 other isoform, or with tags, fused parts or gaps): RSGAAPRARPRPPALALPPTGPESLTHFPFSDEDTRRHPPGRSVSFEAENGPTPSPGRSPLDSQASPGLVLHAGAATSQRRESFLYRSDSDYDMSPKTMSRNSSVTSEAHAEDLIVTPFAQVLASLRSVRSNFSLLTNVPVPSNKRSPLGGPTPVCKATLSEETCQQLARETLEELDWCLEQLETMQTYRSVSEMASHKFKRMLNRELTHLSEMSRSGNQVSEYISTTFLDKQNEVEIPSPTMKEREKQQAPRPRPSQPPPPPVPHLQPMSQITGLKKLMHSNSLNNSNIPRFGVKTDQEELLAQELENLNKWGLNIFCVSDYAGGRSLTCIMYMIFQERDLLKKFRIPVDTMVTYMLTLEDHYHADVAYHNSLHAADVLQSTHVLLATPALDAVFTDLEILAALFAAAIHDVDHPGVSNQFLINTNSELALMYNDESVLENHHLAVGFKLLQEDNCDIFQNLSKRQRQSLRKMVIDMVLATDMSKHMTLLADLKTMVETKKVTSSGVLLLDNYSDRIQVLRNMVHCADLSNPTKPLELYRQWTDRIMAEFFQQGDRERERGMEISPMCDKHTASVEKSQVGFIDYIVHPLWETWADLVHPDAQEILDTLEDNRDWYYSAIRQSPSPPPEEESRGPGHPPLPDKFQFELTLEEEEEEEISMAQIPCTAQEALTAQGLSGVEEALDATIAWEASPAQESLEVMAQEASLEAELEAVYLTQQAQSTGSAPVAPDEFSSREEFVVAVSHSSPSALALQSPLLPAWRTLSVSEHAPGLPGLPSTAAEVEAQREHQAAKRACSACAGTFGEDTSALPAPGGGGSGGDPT
Sequence of Human PDE4C (Q08493 2-712): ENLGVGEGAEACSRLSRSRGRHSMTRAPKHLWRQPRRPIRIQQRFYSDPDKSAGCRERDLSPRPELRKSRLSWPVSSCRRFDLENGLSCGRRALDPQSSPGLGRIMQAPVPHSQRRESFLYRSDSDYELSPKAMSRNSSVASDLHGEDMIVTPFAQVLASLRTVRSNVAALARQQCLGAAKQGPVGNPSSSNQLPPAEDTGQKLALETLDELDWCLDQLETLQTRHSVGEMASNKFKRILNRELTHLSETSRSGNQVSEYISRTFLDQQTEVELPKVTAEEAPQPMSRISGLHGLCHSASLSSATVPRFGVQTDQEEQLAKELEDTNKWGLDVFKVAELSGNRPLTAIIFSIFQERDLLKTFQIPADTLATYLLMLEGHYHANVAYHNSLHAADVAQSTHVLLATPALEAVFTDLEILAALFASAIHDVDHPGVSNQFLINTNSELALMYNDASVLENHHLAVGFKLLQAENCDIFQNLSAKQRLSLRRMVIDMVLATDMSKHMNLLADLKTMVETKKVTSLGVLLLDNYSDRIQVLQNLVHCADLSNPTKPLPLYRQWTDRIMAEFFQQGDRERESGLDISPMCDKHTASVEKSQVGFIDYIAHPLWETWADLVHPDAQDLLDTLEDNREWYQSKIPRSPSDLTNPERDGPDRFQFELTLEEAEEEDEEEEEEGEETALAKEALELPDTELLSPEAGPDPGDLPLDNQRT
Method for Human PDE4A: (§1) The PDE4A3, PDE4B1, PDE4C1 and PDE4D3 assays use the Scintillation Proximity Assay (SPA) technology to measure the inhibition of human recombinant PDE4A1, PDE4B3, PDE4C1, and PDE4D3 enzyme activity by compounds in vitro. The PDE4A1, PDE4B3, PDE4C1, and PDE4D3 assays are run in parallel using identical parameters, except for the concentration of enzyme (80 pM PDE4A3, 40 pM PDE4B3, 40 pM PDE4C1 and 10 pM PDE4D). […] Reactions are incubated for 30 min at 25° C. The addition of 20 uL of 8 mg/ml yitrium silicate SPA beads (Perkin Elmer) stops the reaction. The plates are sealed (TopSeal, Perkin Elmer) and the beads are allowed to settle for 8 hrs, after which they are read on the Trilux Microbeta overnight.
Method for Human PDE4C: as §1

On to `O=C(c1nc2cccnn2c1-c1ccc(Cl)cc1)N1CCC1` [Example 1, Azetidin-1-yl[3-(4-chlorophenyl)imidazo[1,2-b]pyridazin-2-yl]methanone], for which the pIC50 on Human PDE4C was 6.89; at Human PDE4D, 4.99.
As for `O=C(NC1CC1)c1nc2cccnn2c1-c1ccc(Cl)cc1` [Example 2, 3-(4-Chlorophenyl)-N-cyclopropylimidazo[1,2-b]pyridazine-2-carboxamide], the pIC50 is 7.97 on Human PDE4A, 7.55 at Human PDE4C and 5.36 at Human PDE4D.
The like results for `COc1c(F)cc(-c2c(C(=O)N3CCC3)nc3cccnn23)cc1F` [Example 3, Azetidin-1-yl[3-(3,5-difluoro-4-methoxyphenyl)imidazo[1,2-b]pyridazin-2-yl]methanone] were, in that order, 7.90, 7.28 and 5.62.
For the compound `N#Cc1ccc(-c2c(C(=O)NC3CC3)nc3cccnn23)cn1` [Example 5, 3-(6-Cyanopyridin-3-yl)-N-cyclopropylimidazo[1,2-b]pyridazine-2-carboxamide], the pIC50 at Human PDE4A (setting [1]) is 7.40; on Human PDE4C (setting [1]) it was 6.68; at Human PDE4D it was under 4.58.
For the compound `Cn1cc(NC(=O)c2nc3cccnn3c2-c2ccc(Cl)c(F)c2)cn1` [Example 7, 3-(4-Chloro-3-fluorophenyl)-N-(1-methyl-1H-pyrazol-4-yl)imidazo[1,2-b]pyridazine-2-carboxamide], the values for the pIC50 at Human PDE4A, on Human PDE4C and on Human PDE4D were 8.56, 8.63 and 7.46, respectively.
With `O=C(c1nc2cccnn2c1-c1ccc2ccnn2c1)N1CCC1` [Example 8, Azetidin-1-yl[3-(pyrazolo[1,5-a]pyridin-6-yl)imidazo[1,2-b]pyridazin-2-yl]methanone], the results for the pIC50 at Human PDE4A (setting [1]) and on Human PDE4D (setting [1]) were 7.70 and 5.26, respectively.
Turning to `O=C(NC1CC1)c1nc2cccnn2c1-c1cc(F)c(Cl)cc1F` [Example 9, 3-(4-Chloro-2,5-difluorophenyl)-N-cyclopropylimidazo[1,2-b]pyridazine-2-carboxamide], the pIC50 at Human PDE4A (setting [1]) is 8.42; at Human PDE4C (setting [1]), 7.39; at Human PDE4D (setting [1]), 5.83.
The like results for `O=C(NC1CC1)c1nc2cccnn2c1-c1ccc(Cl)c(F)c1` [Example 10, 3-(4-chloro-3-fluorophenyl)-N-cyclopropylimidazo[1,2-b]pyridazine-2-carboxamide] were, in that order, 8.82, 8.16 and 6.23.
The matching figures for `Cc1cc(Cl)ccc1-c1c(C(=O)NC2CC2)nc2cccnn12` [Example 12, 3-(4-chloro-2-methylphenyl)-N-cyclopropylimidazo[1,2-b]pyridazine-2-carboxamide]: 7.84, 7.05 and 5.28.
The matching figures for `O=C(c1nc2cccnn2c1-c1ccc(Cl)c(F)c1)N1CCC1` [Example 13, azetidin-1-yl[3-(4-chloro-3-fluorophenyl)imidazo[1,2-b]pyridazin-2-yl]methanone]: 8.29, 7.76 and 6.17.
With `O=C(NC1CC1)c1nc2cccnn2c1-c1cncc(Cl)c1` [Example 14, 3-(5-chloropyridin-3-yl)-N-cyclopropylimidazo[1,2-b]pyridazine-2-carboxamide], the pIC50 at Human PDE4A (setting [1]) is 7.13; at Human PDE4C (setting [1]) it was 6.97; on Human PDE4D (setting [1]), under 5.10.
The like results for `Cc1cc(-c2c(C(=O)N3CCC3)nc3cccnn23)c(F)cc1C#N` [Example 18, 4-[2-(azetidin-1-ylcarbonyl)imidazo[1,2-b]pyridazin-3-yl]-5-fluoro-2-methylbenzonitrile] were, in that order, 7.26, 6.83 and 5.09.
The matching figures for `Cc1cc(C#N)c(F)cc1-c1c(C(=O)N2CCC2)nc2cccnn12` [Example 20, 4-[2-(azetidin-1-ylcarbonyl)imidazo[1,2-b]pyridazin-3-yl]-2-fluoro-5-methylbenzonitrile]: 8.17, 7.13 and 6.31.
In the case of `O=C(NC1CC1)c1nc2cccnn2c1-c1ccc2ccnn2c1` [Example 22, N-cyclopropyl-3-(pyrazolo[1,5-a]pyridin-6-yl)imidazo[1,2-b]pyridazine-2-carboxamide], the pIC50 on Human PDE4A (setting [1]) was 7.56; on Human PDE4C (setting [1]), 7.15; at Human PDE4D (setting [1]) it was 5.72.
As to `O=C(N[C@@H]1C[C@@H]1F)c1nc2cccnn2c1-c1ccc(Cl)c(F)c1` [Example 45, 3-(4-chloro-3-fluorophenyl)-N-[(1R,2S)-2-fluorocyclopropyl]imidazo[1,2-b]pyridazine-2-carboxamide], the pIC50 on Human PDE4A (setting [1]) is 8.54.
On the same count and under the same terms, the figure for `Cc1ccc(-c2c(C(=O)N3CCC3)nc3cccnn23)cc1Cl` [Example 49, azetidin-1-yl[3-(3-chloro-4-methylphenyl)imidazo[1,2-b]pyridazin-2-yl]methanone] is 8.38; for `Cc1cc(Cl)ccc1-c1c(C(=O)N2CCC2)nc2cccnn12` [Example 56, azetidin-1-yl[3-(4-chloro-2-methylphenyl)imidazo[1,2-b]pyridazin-2-yl]methanone] it is 7.64; for `COc1ccc(-c2c(C(=O)N3CCC3)nc3cccnn23)c(F)c1` [Example 73, azetidin-1-yl[3-(2-fluoro-4-methoxyphenyl)imidazo[1,2-b]pyridazin-2-yl]methanone] it is 6.78.
Same read-out and setting: the figure for `CCNC(=O)c1nc2cccnn2c1-c1ccc(Cl)c(F)c1` [Example 81, 3-(4-chloro-3-fluorophenyl)-N-ethylimidazo[1,2-b]pyridazine-2-carboxamide] is 8.10.
On to `O=C(Nc1cn[nH]c1)c1nc2cccnn2c1-c1ccc(Cl)c(F)c1` [Example 82, 3-(4-chloro-3-fluorophenyl)-N-(1H-pyrazol-4-yl)imidazo[1,2-b]pyridazine-2-carboxamide], for which, on Human PDE4A (setting [1]), the pIC50 is 7.92.
Regarding `O=C(c1nc2cccnn2c1-c1cccc(Cl)c1)N1CCC1` [Example 84, azetidin-1-yl[3-(3-chlorophenyl)imidazo[1,2-b]pyridazin-2-yl]methanone], at Human PDE4A (setting [1]), the pIC50 is 7.78.
Still for that read-out and setting: next, `O=C(c1nc2cccnn2c1-c1ccc2c(c1)OC(F)(F)O2)N1CCC1` [Example 86, azetidin-1-yl[3-(2,2-difluoro-1,3-benzodioxol-5-yl)imidazo[1,2-b]pyridazin-2-yl]methanone]: 8.23; `O=C(c1nc2cccnn2c1-c1cc(F)c(Cl)cc1F)N1CCC1` [Example 91, azetidin-1-yl[3-(4-chloro-2,5-difluorophenyl)imidazo[1,2-b]pyridazin-2-yl]methanone]: 7.90; `Cc1cc(Cl)c(F)cc1-c1c(C(=O)NC(C)C)nc2cccnn12` [Example 97, 3-(4-chloro-5-fluoro-2-methylphenyl)-N-(propan-2-yl)imidazo[1,2-b]pyridazine-2-carboxamide]: 8.26.
As to `Cc1cc(C#N)c(F)cc1-c1c(C(=O)NC(C)C)nc2cccnn12` [Example 99, 3-(4-cyano-5-fluoro-2-methylphenyl)-N-(propan-2-yl)imidazo[1,2-b]pyridazine-2-carboxamide], the pIC50 on Human PDE4A (setting [1]) was 7.70.
Still for that read-out and setting: the figure for `O=C(Nc1ccn[nH]1)c1nc2cccnn2c1-c1ccc(Cl)cc1` [Example 103, 3-(4-chlorophenyl)-N-(1H-pyrazol-5-yl)imidazo[1,2-b]pyridazine-2-carboxamide] is 7.20.
